Consider 17 compounds from US12070455B2, “Thienopyrrole compounds” (Gilead Sciences, Inc., priority 2021, dated 2024).

For one test, the target named is T1, TLR8 (Homo sapiens, UniProt Q9NR97).
T1 construct: Human peripheral blood mononuclear cells (PBMCs) consist of lymphocytes, monocytes and dendritic cells that express TLR7, TLR8 and TLR9; endogenous in cells; host or cells: cryopreserved human PBMCs from healthy donors
T1 sequence (Q9NR97 27-1041): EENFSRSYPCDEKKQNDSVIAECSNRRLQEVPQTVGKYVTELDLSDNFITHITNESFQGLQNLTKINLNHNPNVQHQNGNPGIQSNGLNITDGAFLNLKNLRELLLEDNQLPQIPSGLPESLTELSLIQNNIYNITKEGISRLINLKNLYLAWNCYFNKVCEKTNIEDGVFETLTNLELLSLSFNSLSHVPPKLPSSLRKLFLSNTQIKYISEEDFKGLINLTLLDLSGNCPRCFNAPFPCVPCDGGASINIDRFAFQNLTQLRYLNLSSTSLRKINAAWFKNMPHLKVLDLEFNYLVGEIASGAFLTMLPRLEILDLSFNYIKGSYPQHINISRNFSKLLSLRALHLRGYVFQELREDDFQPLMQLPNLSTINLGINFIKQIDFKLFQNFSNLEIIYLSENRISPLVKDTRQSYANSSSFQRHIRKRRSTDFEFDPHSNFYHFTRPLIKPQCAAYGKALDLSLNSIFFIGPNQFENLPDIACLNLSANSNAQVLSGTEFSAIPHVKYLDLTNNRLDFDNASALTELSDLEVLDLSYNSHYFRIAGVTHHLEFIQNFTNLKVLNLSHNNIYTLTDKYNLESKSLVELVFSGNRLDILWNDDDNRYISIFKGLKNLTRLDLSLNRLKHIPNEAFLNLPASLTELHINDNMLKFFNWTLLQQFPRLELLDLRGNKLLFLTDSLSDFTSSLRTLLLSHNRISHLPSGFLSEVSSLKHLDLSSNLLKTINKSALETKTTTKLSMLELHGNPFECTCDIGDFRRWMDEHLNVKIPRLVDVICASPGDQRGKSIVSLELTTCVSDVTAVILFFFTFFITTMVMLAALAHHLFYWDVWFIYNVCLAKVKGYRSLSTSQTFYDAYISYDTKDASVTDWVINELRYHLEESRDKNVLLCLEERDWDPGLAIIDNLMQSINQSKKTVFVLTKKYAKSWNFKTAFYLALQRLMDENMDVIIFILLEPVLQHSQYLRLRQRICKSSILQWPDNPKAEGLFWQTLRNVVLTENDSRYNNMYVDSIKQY
Put plainly: TLR8 human peripheral blood mononuclear cell (PBMC) cell-based assay. The conditions noted are these: human PBMCs; 1 h with antagonist, then TLR8 agonist Compound A 800 nM for 6 h; cytokines (TNFa and IL12p40) in supernatant; read-out: TLR-8 EC50. The protocol: TLR8 Human Peripheral Blood Mononuclear Cell (PBMC) Cell-Based Assay
Cryopreserved human PBMCs from healthy donors were thawed and resuspended in RPMI-1640 media with L-glutamine (Corning) supplemented with 10% Fetal Bovine Serum (Hyclone) and 1× Penicillin-Streptomycin (Corning). After counting, the cell density was adjusted to 2 million cells/ml and incubated for 1 hour at 37° C., 5% CO2 for recovery. Following the recovery, the cells were plated by adding 50 μl per well (100,000 cells) to 384-well cell culture plates (Greiner) containing 250 nl of test antagonists in 100% DMSO per well, in a 10 points dose response in quadruplicates. PBMCs were incubated in the presence of antagonists for one hour at 37° C., 5% CO2 before being stimulated with TLR8 agonist. Compound A (Gilead Sciences, U.S. Pat. No. 10,285,990) was used as the TLR8 agonist at a final concentration of 800 nM. PBMCs were incubated in the presence of antagonist and the TLR8 agonist for an additional 6 hours at 37° C., 5% CO2. At the end of the incubation, the cell culture plates were centrifuged at 500 g for 5 min, and the cell culture supernatant was collected. The level of cytokines (TNFa and IL12p40) in the supernatant was measured by electrochemiluminescence immunoassays (Mesoscale Discovery) following manufacturer's recommended protocols. The level of cytokine measured was plotted against the antagonist concentration and fitted to a sigmoidal function to determine the EC50, which are shown below in Table 6.

The next test has as its target T2, TLR7 (Homo sapiens, UniProt Q9NYK1).
T2 construct: Human peripheral blood mononuclear cells (PBMCs) consist of lymphocytes, monocytes and dendritic cells that express TLR7, TLR8 and TLR9; endogenous in cells; host or cells: cryopreserved human PBMCs from healthy donors
T2 sequence (Q9NYK1 27-1049): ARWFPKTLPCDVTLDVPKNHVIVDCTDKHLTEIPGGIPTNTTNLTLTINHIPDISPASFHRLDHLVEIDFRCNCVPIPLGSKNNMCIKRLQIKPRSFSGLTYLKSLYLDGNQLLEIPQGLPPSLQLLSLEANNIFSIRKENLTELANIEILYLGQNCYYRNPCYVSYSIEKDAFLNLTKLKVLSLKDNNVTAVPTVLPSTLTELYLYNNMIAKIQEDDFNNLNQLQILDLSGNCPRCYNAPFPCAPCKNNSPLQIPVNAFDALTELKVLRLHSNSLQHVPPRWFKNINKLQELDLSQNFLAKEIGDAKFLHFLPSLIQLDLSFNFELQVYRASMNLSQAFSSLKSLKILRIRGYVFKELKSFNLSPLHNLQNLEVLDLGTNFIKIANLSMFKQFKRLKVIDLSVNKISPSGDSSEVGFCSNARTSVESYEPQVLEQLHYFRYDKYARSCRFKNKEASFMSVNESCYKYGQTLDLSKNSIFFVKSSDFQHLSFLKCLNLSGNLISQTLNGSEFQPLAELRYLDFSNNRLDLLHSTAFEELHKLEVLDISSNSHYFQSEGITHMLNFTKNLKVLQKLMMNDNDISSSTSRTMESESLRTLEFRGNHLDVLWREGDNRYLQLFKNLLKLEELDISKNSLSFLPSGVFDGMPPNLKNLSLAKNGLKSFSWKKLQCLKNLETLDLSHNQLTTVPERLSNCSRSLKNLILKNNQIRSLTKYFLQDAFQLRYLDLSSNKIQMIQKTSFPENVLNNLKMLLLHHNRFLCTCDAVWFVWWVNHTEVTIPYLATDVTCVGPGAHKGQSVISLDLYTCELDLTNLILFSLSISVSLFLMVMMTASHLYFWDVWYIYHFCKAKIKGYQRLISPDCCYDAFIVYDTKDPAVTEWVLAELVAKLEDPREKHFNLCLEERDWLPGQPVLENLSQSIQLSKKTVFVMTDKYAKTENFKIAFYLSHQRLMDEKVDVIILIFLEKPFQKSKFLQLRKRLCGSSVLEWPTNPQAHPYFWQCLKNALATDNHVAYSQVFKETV
Put plainly: TLR7 human peripheral blood mononuclear cell (PBMC) cell-based assay. To be noted: human PBMCs; 1 h with test antagonist, then TLR7 agonist GS-986 400 nM for 6 h; cytokines (IL-6 and IFNα) in supernatant; read-out: TLR-7 EC50. From the text:
TLR7/9 Human Peripheral Blood Mononuclear Cell (PBMC) Cell-Based Assay
Human peripheral blood mononuclear cells (PBMCs) consist of lymphocytes, monocytes and dendritic cells that express TLR7, TLR8 and TLR9. These cells respond to TLR7, TLR8 and TLR9 ligand stimulation and produce cytokines and chemokines in vitro and in vivo. Human PBMCs are therefore suitable to be used in a cell-based assay to assess the in vitro potency of a TLR 7, 8, and/or 9 antagonist.
Cryopreserved human PBMCs from healthy donors were thawed and resuspended in RPMI-1640 media with L-glutamine (Corning) supplemented with 10% Fetal Bovine Serum (Hyclone) and 1× Penicillin-Streptomycin (Corning). After counting, the cell density was adjusted to 2 million cells/ml and incubated for 1 hour at 37° C., 5% CO2 for recovery. Following the recovery, the cells were plated by adding 50 μl per well (100,000 cells) to 384-well cell culture plates (Greiner) containing 250 nl of test antagonists in 100% DMSO per well, in a 10 points dose response in quadruplicates. PBMCs were incubated in the presence of test antagonists for one hour at 37° C., 5% CO2 before being stimulated with a TLR7 or TLR9 agonist. GS-986 (Gilead Sciences) was used as the TLR7 agonist at a final concentration of 400 nM. ODN-2216 (InvivoGen) was used as the TLR9 agonist at a final concentration of 3 μM. PBMCs were incubated in the presence of the test antagonist and the TLR7 (or TLR9) agonist for an additional 6 hours at 37° C., 5% CO2. At the end of the incubation, the cell culture plates were centrifuged at 500 g for 5 min, and the cell culture supernatant was collected. The level of cytokines (IL-6 and IFNα) in the supernatant was measured by electrochemiluminescence immunoassays (Mesoscale Discovery) following manufacturer's recommended protocols. The level of cytokine measured was plotted against the test antagonist concentration and fitted to a sigmoidal function to determine the EC50, which are shown below in Table 6.

As usually defined, the EC50 is the midpoint of the concentration-response curve. For the compound `Cc1c(C2CCN(C(=O)[C@H]3C[C@@]4(CNCCO4)C3)CC2)sc2[nH]c(-c3cn4ncnc4c4c3CCC4)c(C(C)C)c12` [Example 25], the half-maximal effective concentration (EC50) at TLR8 came out at 1.38 nM; on TLR7, 0.05 nM.
For `Cc1c(C2CCN(C(=O)[C@H]3COCCN3)CC2)sc2[nH]c(-c3cn4ncnc4c4c3CCC4)c(C(C)C)c12` [Example 14, (R)-(4-(5-(8,9-dihydro-7H-cyclopenta[c][1,2,4]triazolo[1,5-a]pyridin-6-yl)-4-isopropyl-3-methyl-6H-thieno[2,3-b]pyrrol-2-yl)piperidin-1-yl)(morpholin-3-yl)methanone], in that order: 4.87 nM and 0.58 nM.
On to `Cc1c(-c2ccc(N3CCNCC3)nc2)sc2[nH]c(-c3cn4ncnc4c4c3CCC4)c(C(C)C)c12` [Example 22], for which the figures for the 50% effective concentration (EC50) on TLR8 and at TLR7 were 0.66 nM and 0.23 nM, respectively.
On the same counts, the results for `Cc1c(C2CCC(N3CC(C)(O)C3)CC2)sc2[nH]c(-c3cn4ncnc4c4c3CCC4)c(C(C)C)c12` (stereo not shown) [Example 28] are 1.57 nM and 0.15 nM.
For `Cc1c(C2CCN(C(=O)[C@H]3C[C@H](O)CN3)CC2)sc2[nH]c(-c3cn4ncnc4c4c3CCC4)c(C(C)C)c12` [Example 32], in that order: 11.3 nM and 1.5 nM.
On the same counts, the results for `Cc1c(C2CCN(Cc3ccn(C)n3)CC2)sc2[nH]c(-c3cn4ncnc4c4c3CCC4)c(C(C)C)c12` [Example 13] are 5.84 nM and 1.44 nM.
Regarding `Cc1nc2c3c(c(-c4[nH]c5sc(C6CCN(CC(N)=O)CC6)c(C)c5c4C(C)C)cn2n1)COC3` [Example 44], the values for the EC50 on TLR8 and at TLR7 were 135 nM and 4.09 nM, respectively.
On the same counts, the results for `Cc1c(C2CCC(N3CC4(CCN(C)C4=O)C3)CC2)sc2[nH]c(-c3cn4ncnc4c4c3CCC4)c(C(C)C)c12` (stereo not shown) [Example 30] are 1.29 nM and 0.86 nM.
For `Cc1c(C2CC3CCC(C2)N3CC(N)=O)sc2[nH]c(-c3cn4ncnc4c4c3CCC4)c(C(C)C)c12` (stereo not shown) [Example 7], in that order: 3.91 nM and 0.78 nM.
On the same counts, the results for `Cc1c(C2CCN(CC(N)=O)CC2)sc2[nH]c(-c3cn4ncnc4c4c3CCO4)c(C(C)C)c12` [Example 36] are 27.6 nM and 4.5 nM.
On to `Cc1nc2c3c(c(-c4[nH]c5sc(C6CCN(CC(N)=O)CC6)c(C)c5c4C(C)C)cn2n1)CCC3` [Example 50], for which the EC50 at TLR8 came out at 34.6 nM; at TLR7, 0.78 nM.
For the compound `Cc1c([C@@H]2C[C@@H]3C[C@H]2CN3CC(N)=O)sc2[nH]c(-c3cn4ncnc4c4c3COC4)c(C(C)C)c12` [Example 48], the EC50 on TLR8 is 0.36 nM; on TLR7, 0.39 nM.
For `Cc1c(C2CC3(CCN(CC(N)=O)C3)C2)sc2[nH]c(-c3cn4ncnc4c4c3CCC4)c(C(C)C)c12` (stereo not shown) [Example 9], in that order: 0.32 nM and 1.17 nM.
Regarding `Cc1c(C2CCC(N3CC4(COC4)C3)CC2)sc2[nH]c(-c3cn4ncnc4c4c3CCC4)c(C(C)C)c12` (stereo not shown) [Example 29], the half-maximal effective concentration (EC50) stood at 1 nM at TLR8 and 0.1 nM on TLR7.
For `Cc1nc2c3c(c(-c4[nH]c5sc(C6CCN(C(=O)[C@H]7COCCN7)CC6)c(C)c5c4C(C)C)cn2n1)COC3` [Example 51, (R)-(4-(4-isopropyl-3-methyl-5-(2-methyl-7,9-dihydrofuro[3,4-c][1,2,4]triazolo[1,5-a]pyridin-6-yl)-6H-thieno[2,3-b]pyrrol-2-yl)piperidin-1-yl)(morpholin-3-yl)methanone], in that order: 96.6 nM and 2.46 nM.
Consider `Cc1c(C2CCN(S(=O)(=O)N3CCNCC3)CC2)sc2[nH]c(-c3cn4ncnc4c4c3CCC4)c(C(C)C)c12` [Example 11, 5-(8,9-dihydro-7H-cyclopenta[c][1,2,4]triazolo[1,5-a]pyridin-6-yl)-4-isopropyl-3-methyl-2-(1-(piperazin-1-ylsulfonyl)piperidin-4-yl)-6H-thieno[2,3-b]pyrrole], for which the results for the EC50 on TLR8 and at TLR7 were 4.7 nM and 0.32 nM, respectively.
For the compound `Cc1c(C2CCN(CC3(C)COC3)CC2)sc2[nH]c(-c3cn4ncnc4c4c3CCC4)c(C(C)C)c12` [Example 12, 5-(8,9-dihydro-7H-cyclopenta[c][1,2,4]triazolo[1,5-a]pyridin-6-yl)-4-isopropyl-3-methyl-2-(1-((3-methyloxetan-3-yl)methyl)piperidin-4-yl)-6H-thieno[2,3-b]pyrrole], the concentration for a half-maximal effect (EC50) on TLR8 came to 4.74 nM; at TLR7 it was 6.08 nM.
